Values of other authors, collected in patent US20060002865A1, “Stable baking soda/peroxide with calcium and phosphate whitening product” (priority 2004, published 2006).

What was measured:
[1] = aqueous solution, pH about 7.0, about 25° C.

For [Mg+2].[O-][O-] [Magnesium peroxide], the “solubility in water (in words)” value is listed as “essentially insoluble”.

In the case of O.O.O=P([O-])([O-])O.[Ca+2] [dicalcium phosphate dihydrate], the calcium cations released [1] is listed as “about 40 ppm”.

In the case of Sodium perborate, the solubility in water is listed as “about 2.5%”.
